Experimental findings from PubChem BioAssay AID1996 are described below.

Values after ≈ are worked out from the molar mass of the structure shown. Bounds are passed on as bounds.

For this data set the following is noted: buffer; pH 7.4; 200.0 µM.
Compound `CC1CC(C)CN(C(=O)Nc2ccccc2F)C1` (stereo not drawn) yielded a solubility (kinetic) of 15 µg/mL (≈ 59.9 µM).
With `Cc1ccc(C(=O)Nc2ccc3c(c2)C(=O)N(CC2CCCO2)C3=O)cc1` (stereo not drawn), the kinetic solubility is 1 µg/mL (≈ 2.74 µM).
As for `NC(=O)c1ccccc1NC(=O)CN1CCCCCC1`, the figure is more than 41.3 µg/mL; as for `COc1ccc(NC(=O)Cn2cc(C#N)c3ccccc32)cc1`, less than 0.2 µg/mL; as for `O=C1OC(N2C(=O)CC[C@H]2C(=O)Nc2ccc3c(c2)OCO3)c2ccccc21` (stereo partly drawn), more than 57.1 µg/mL.
To `Cn1c(-c2ccccc2)cnc1NCc1ccccc1` belongs 34.9 µg/mL (≈ 133 µM); to `COc1ccccc1C(=O)Nc1cccc(C(=O)c2ccccc2)c1`, 3.5 µg/mL (≈ 10.6 µM).
As for `O=C(c1ccc(Cl)s1)N1CCN(S(=O)(=O)c2ccc(Cl)cc2)CC1`, the figure is 3.2 µg/mL (≈ 7.89 µM); as for `CCCCc1nc2cc(C(=O)N3CCC[C@H]3CO)ccc2o1`, more than 45.4 µg/mL.
For `CC(NC(=O)/C(C#N)=C/c1ccc(OCC(=O)O)cc1)c1ccccc1` (stereo not drawn), the solubility (kinetic) turned out to be 50.8 µg/mL (≈ 145 µM).
For `CC12CCC(C(=O)N(CC3CO3)C1=O)C2(C)C` (stereo not drawn), the kinetic solubility was more than 35.6 µg/mL.
To `CN(C(=O)CN1CCN(c2ccccc2F)CC1)C1CCCc2ccccc21` (stereo not drawn) belongs more than 57.2 µg/mL; to `CC(C)N(C(=O)Cn1c(=O)oc2ccccc21)c1ccccc1`, 0.7 µg/mL (≈ 2.26 µM); to `C=CCc1cccc(CNc2c(C)cc(C)cc2C)c1O`, 4.7 µg/mL (≈ 16.7 µM).
To `CC(=O)COC(=O)c1ccc2noc(-c3ccccc3)c2c1` belongs 8 µg/mL (≈ 27.1 µM).
To `C[C@@H]1CC2(CCCC[N+]2(C)C)C[C@H]1C.[I-]` belongs more than 48.5 µg/mL; to `O=C(COC(=O)c1ccc(F)c(S(=O)(=O)N2CCOCC2)c1)NCc1ccccc1`, more than 65.5 µg/mL.
Take `Cc1ccc([N+](=O)[O-])cc1N=C1C(=O)Nc2ccccc21`: the solubility (kinetic) amounted to 37.4 µg/mL (≈ 133 µM).
To `COC(=O)c1ccccc1NC(=O)Nc1ccc(Cl)cn1` belongs more than 45.9 µg/mL; to `O=[N+]([O-])c1ccc(N2CCCC2)nc1`, 26.8 µg/mL (≈ 139 µM); to `O=C(CN1C(=O)c2ccccc2C1=O)NC1CCCCCC1`, 12.4 µg/mL (≈ 41.3 µM).
Regarding `Nc1cc(=O)[nH]c(SCC(=O)c2ccc(F)cc2)n1`, the kinetic solubility was more than 41.9 µg/mL.
To `O=C(CSC1=NCCS1)c1ccc(Cl)cc1` belongs 31.2 µg/mL (≈ 115 µM); to `O=C(NCCNC(=O)c1cc(Cl)ccc1Cl)c1cnccn1`, more than 50.9 µg/mL; to `CCN(CC(=O)Nc1c(F)cccc1F)C(=O)C1CC1C` (stereo not drawn), more than 44.4 µg/mL.
As for `Cc1ccc(C(=O)N2c3ccccc3OCC2C)cc1` (stereo not drawn), the figure is 37 µg/mL (≈ 138 µM); as for `CC(C)N1CC(C(=O)Nc2cccc([N+](=O)[O-])c2)CC1=O` (stereo not drawn), more than 43.7 µg/mL.
As for `O=C(NCCCN1CCCC1=O)c1ccc(Cl)c(Cl)c1`, the figure is 45.9 µg/mL (≈ 146 µM); as for `CCCCCCCn1c(NC(=O)CC)nc2ccccc21`, 13.8 µg/mL (≈ 48 µM).
As to `O=C(COC(=O)c1cccc(Cl)c1)NCc1ccccc1`, the solubility (kinetic) was 4.6 µg/mL (≈ 15.1 µM).
As for `O=C(/C=C/c1ccccc1)NC(=S)Nc1ccccc1O`, the figure is 0.5 µg/mL (≈ 1.68 µM); as for `Cc1ccc2cccc(OCc3ccc(F)cc3)c2n1`, 6 µg/mL (≈ 22.4 µM).
For `C=CCNC(=O)COc1cc(C)cc(C)c1C`, the kinetic solubility came to 30.8 µg/mL (≈ 132 µM).
To `CC1(C)C(C=C(Cl)Cl)C1C(=O)NC(O)C(=O)c1ccccc1` (stereo not drawn) belongs 10.8 µg/mL (≈ 31.6 µM); to `O=C(/C=C/c1ccc(S(=O)(=O)N2CCOCC2)cc1)NC(CO)C(O)c1ccc([N+](=O)[O-])cc1` (stereo not drawn), more than 73.7 µg/mL.
Consider `COc1cc(N)c(Cl)cc1C(=O)OCC(=O)NC(=O)NCc1ccco1`, for which the kinetic solubility was 5.3 µg/mL (≈ 13.9 µM).
To `Cl.Clc1ccc2sc(C3CCNCC3)nc2c1` belongs 43.3 µg/mL; to `Cc1cccc(NC(=O)N2CCC(NC(=O)c3ccco3)CC2)c1`, more than 49.1 µg/mL; to `O=C(Nc1cccc(C(=O)NC2CCCC2)c1)c1ccccc1`, 21.1 µg/mL (≈ 68.4 µM).
As for `CC(Sc1nnc(-c2ccco2)n1C)C(=O)NC1CCCC1` (stereo not drawn), the figure is more than 48.1 µg/mL; as for `COc1ccc(C(=O)NCC(=O)N2CCNC(=O)C2)cc1OC`, more than 48.2 µg/mL.
As for `O=C(CC(=O)c1ccccc1)Nc1ccccc1C(F)(F)F`, the figure is 43.7 µg/mL (≈ 142 µM); as for `Nc1cc(-c2ccncc2)c[nH]c1=O`, more than 28.1 µg/mL; as for `Oc1ccc(Nc2nc(-c3ccccc3)nc3ccccc23)cc1`, 2.3 µg/mL (≈ 7.34 µM).
In the case of `CCN(CC)CCNC(=O)c1ccc(NC(=O)Cc2ccsc2)cc1`, the kinetic solubility was 49.4 µg/mL (≈ 137 µM).
`CN(C)P(=O)(NC(=O)c1cccn1C)N(C)C` showed a kinetic solubility of more than 38.7 µg/mL.
As for `CCc1ccc2oc(C(=O)Nc3cccnc3)c(C)c2c1`, the figure is 1 µg/mL (≈ 3.57 µM); as for `CN(CC(=O)Nc1ccc(N2CCOCC2)cc1)C(=O)c1ccc(CS(C)(=O)=O)cc1`, more than 66.8 µg/mL; as for `N#Cc1c(N)n(-c2cccc(O)c2)c2nc3ccccc3nc12`, 6.4 µg/mL (≈ 21.2 µM).
To `CC(=O)NC(CC(=O)O)c1ccc([N+](=O)[O-])cc1` (stereo not drawn) belongs more than 37.8 µg/mL; to `O=C(NC(=S)Nc1ccccc1F)C1CCCCC1`, 3 µg/mL (≈ 10.7 µM); to `NS(=O)(=O)c1cccc(C(=O)NC2CCSc3ccccc32)c1` (stereo not drawn), 42.4 µg/mL (≈ 122 µM).
The compound `Cc1cccc(NC2=NCCCS2)c1` returned a kinetic solubility of more than 30.9 µg/mL.
In the case of `CC(=O)Oc1cccc(Nc2ncnc3ccccc23)c1`, the kinetic solubility is more than 41.9 µg/mL.
`CCc1noc(C)c1C(=O)OCC(=O)NC(=O)c1ccccc1`: the solubility (kinetic) was more than 47.4 µg/mL.
In turn, `O=c1cc(CO)oc(C(Nc2ccccn2)c2ccccc2Cl)c1O` (stereo not drawn) registered a solubility (kinetic) of more than 53.8 µg/mL.
As for `Cc1ccc(OCC(=O)Nc2ccc(NC(=O)c3ccccc3)c(C)c2)cc1`, the figure is 1 µg/mL (≈ 2.67 µM).
As for `Cc1onc(-c2c(Cl)cccc2Cl)c1C(=O)Nc1ccc(Cl)cn1`, the figure is 3.9 µg/mL (≈ 10.2 µM).
Consider `CN1C2=C(C(=O)CC(C)(C)C2)C(c2cccs2)C2=C1CC(C)(C)CC2=O`, for which the kinetic solubility was 32.6 µg/mL (≈ 88.2 µM).
To `COC(=O)c1c(NC(C)=O)sc(C(=O)N2CCOCC2)c1C` belongs more than 49 µg/mL.
To `O=C(CCc1ccccc1)N/N=C/c1cccc(O)c1` belongs more than 40.2 µg/mL; to `Cc1ccccc1Cn1c(-c2ccc(=O)[nH]c2)nc2ccccc21`, 27.8 µg/mL (≈ 88.1 µM).
The compound `CCOc1ccc(NC(=O)CCN2CCN(C)CC2)cc1` showed a kinetic solubility of more than 43.7 µg/mL.
As for `C/C=C/COC(=O)C1=C(C)NC(=O)NC1c1ccc2c(c1)OCO2` (stereo not drawn), the figure is 15.5 µg/mL (≈ 46.9 µM); as for `Cc1ccn2c(NC(=O)c3ccccc3)c(-c3ccccc3)nc2c1`, 2 µg/mL (≈ 6.11 µM).
As for `COc1ccc(/C=C/C(=O)NCCSCc2ccco2)cc1OC`, the figure is 41.9 µg/mL (≈ 121 µM).
To `O=C(CCSCc1ccccc1F)NCCc1ccccc1` belongs 17.8 µg/mL (≈ 56.1 µM).
Compound `O=C(O)CC(NC(=O)C1CCCCC1)c1cc([N+](=O)[O-])ccc1Cl` (stereo not drawn) came in with a kinetic solubility of more than 53.2 µg/mL.
The compound `CC(CCc1ccccc1)NC(C)C(O)c1ccc(O)cc1.Cl` (stereo not drawn) returned a solubility (kinetic) of more than 50.4 µg/mL.
As for `COc1cccc(N2CCN(C(=O)c3ccc4nc[nH]c4c3)CC2)c1`, the figure is 48.6 µg/mL (≈ 144 µM); as for `O=C(O)c1ccccc1N1C(=O)C2C3CCC(C3)C2C1=O` (stereo not drawn), 39.5 µg/mL (≈ 138 µM).
Compound `CCn1c(=O)c2sccc2n(CC(=O)NC2CCCC2)c1=O` showed a kinetic solubility of 45.4 µg/mL (≈ 141 µM).
`CC(c1ccccc1)N1CC(C(=O)O)CC1=O` (stereo not drawn) returned a solubility (kinetic) of more than 35 µg/mL.
As for `O=S(=O)(c1cccc2ccccc12)N1CCCCC1`, the figure is 17.3 µg/mL (≈ 62.8 µM).
As for `Cn1c(CO)cnc1S(=O)(=O)Cc1c(Cl)cccc1Cl`, the figure is more than 50.3 µg/mL; as for `CC(=O)c1c(C)[nH]c(C(=O)Nc2cccc(S(=O)(=O)N3CCCC3)c2)c1C`, 7 µg/mL (≈ 18 µM); as for `COc1ccccc1NS(=O)(=O)c1cccc(NS(=O)(=O)c2cc(C(=O)O)ccc2OC)c1`, more than 73.9 µg/mL.
As for `CC(=O)c1ccc(NC(=O)CCOc2cc(C)ccc2C)cc1`, the figure is 5 µg/mL (≈ 16.1 µM).
`Cc1c(Cl)cnc(NC(=O)COC(=O)CNC(=O)c2ccccc2)c1Cl`: the solubility (kinetic) stood at 52.3 µg/mL (≈ 132 µM).
The compound `O=c1oc2ccccc2n1Cc1cccc(C(F)(F)F)c1` had a solubility (kinetic) of 2.2 µg/mL (≈ 7.5 µM).
For the compound `COc1cccc(NC(=O)C(Cc2ccccc2)n2cccc2)c1` (stereo not drawn), the kinetic solubility turned out to be 27.2 µg/mL (≈ 84.9 µM).
Compound `COc1ccccc1OCC(=O)Nc1sc2c(c1C(N)=O)CCC2` had a solubility (kinetic) of 4.6 µg/mL (≈ 13.3 µM).
`Nc1ccc(-c2ccc(N)c([N+](=O)[O-])c2)cc1[N+](=O)[O-]` yielded a kinetic solubility of 0.2 µg/mL (≈ 0.729 µM).
With `CCc1sc(C(=O)N2CCCN(C)CC2)cc1Br`, the kinetic solubility was found to be 46.5 µg/mL (≈ 140 µM).
As for `Cc1cc(C)c(NC(=O)CN2CCCCCC2)c(C)c1`, the figure is more than 41.2 µg/mL; as for `Cc1nc(NC(=O)C2CCCCC2C(=O)O)sc1C` (stereo not drawn), 40.5 µg/mL (≈ 143 µM); as for `Cc1nn(-c2ccccn2)c(N)c1N=O`, more than 30.5 µg/mL.
To `O=Cc1ccc(OCCOc2ccc([N+](=O)[O-])cc2)cc1` belongs less than 0.6 µg/mL; to `O=C(NCCCn1ccnc1)c1ccc(Cl)cc1`, more than 39.6 µg/mL.
To `Cl.NCCc1nnc(SCc2ccccc2Cl)o1` belongs more than 45.9 µg/mL; to `CC(=Nc1ccc(F)cc1)c1c(O)n(C)c(=O)[nH]c1=O`, 7 µg/mL (≈ 25.2 µM).
In turn, `CCCCC(=O)NC(=S)Nc1ccc(NC(=O)C(C)C)c(OC)c1` registered a kinetic solubility of 5.4 µg/mL (≈ 15.4 µM).
To `O=C(O)c1cccc2c(/C=N/Nc3ccccn3)c[nH]c12` belongs more than 42 µg/mL.
As for `Cc1ccc(S(=O)(=O)NCCC(=O)NC2CCCCCC2)cc1C`, the figure is more than 52.9 µg/mL.
Turning to `O=C(Nc1ccccc1)C1CC(=O)N(Cc2ccccc2)C1` (stereo not drawn), the kinetic solubility is more than 44.2 µg/mL.
Compound `O=C(N/N=C/c1ccccn1)c1ccncc1` had a solubility (kinetic) of more than 33.9 µg/mL.
As for `O=C(COC(=O)c1cc(=O)[nH]c2ccccc12)NCc1ccccc1`, the figure is 20.8 µg/mL (≈ 61.8 µM); as for `O=C(OCc1ccc([N+](=O)[O-])cc1)c1cc2ccccc2oc1=O`, less than 0.7 µg/mL; as for `COc1cccc2c1O/C(=N\O)C(C(=O)Nc1cccc(C)c1C)C2` (stereo not drawn), more than 51.1 µg/mL.
Compound `Cc1onc(-c2c(Cl)cccc2Cl)c1NC(=O)NC1CCSC1` (stereo not drawn) registered a kinetic solubility of more than 55.8 µg/mL.
Take `CS(=O)(=O)N(CC(=O)N1CCOCC1)c1ccccc1`: the kinetic solubility is more than 44.8 µg/mL.
To `COc1ccc(NC(=O)c2ccc3nc(C)sc3c2)cc1` belongs 15.4 µg/mL (≈ 51.6 µM); to `CC1CCN(Cc2nc(Cl)c3c4c(sc3n2)CCC4)CC1`, 27.4 µg/mL (≈ 85.1 µM).

For orientation: kinetic solubility means the concentration staying in solution when a stock, usually in DMSO, is diluted into the medium.
